For assay [1], the target named is T1, Piezo1 (Mus musculus, UniProt E2JF22).
T1 construct: from tissue; host or cells: Prox1-EGFP mice (pregnant females at E18.5 and pups at P0); lymphatic vessels of mesentery (jejunum, colon) and tail skin
The experiment in a line: Lymphatic valve formation in Prox1-EGFP mice after perinatal Yoda1 administration. It is filed as in vivo. Conditions: Yoda1 70 μg/kg intraperitoneal at E18.5 and P0, evaluated at P1, mesenteries of the jejunum and the colon, tail skin. An excerpt:
All mouse works have been approved by the Institutional Animal Care and Use Committee, University of Southern California (PI: YK Hong). Sources of the mice are: Prox1-EGFP (Tg(Prox1-EGFP)KY221Gsat, Mutant Mouse Resource and Research Centers) (35), Prox1-tdTomato (Tg(Prox1-tdTomato)TA76Gsat/Mmucd, Mutant Mouse Resource and Research Centers) (28), Prox1-CreER^T2 (a kind gift from Dr. Taija Makinen, Uppsala University, Sweden) (17), Piezo1^fl/fl (Piezo1^tm2.1Apat/J. Jackson Laboratory) (29). Mice were maintained in mixed outbred backgrounds. […]
Pregnant Prox1-EGFP females at E18.5 were intraperitoneal injected with vehicle or Yoda1 (70 μg/kg). […] Equivalent anatomic locations were selected for capturing images in the vehicle and Yoda1-treated groups, and their lymphatic valve formation was investigated and quantified (Supplemental FIG. 5).
As Piezo1 was originally identified as a mechanically activated cation channel (21-25), we next asked whether another physical force, such as cell stretching, could stimulate Piezo1 and induce the molecular signature of lymphatic valves. […] Prox1-EGFP mice were perinatally administrated at E18.5 and P0 with a chemical agonist of Piezo1, Yoda1 (30), and lymphatic valve formation in the small intestine, colon, and skin was evaluated at P1. […]

Assay [2] has as its system cultured LECs. The experiment in a line: Lymphatic valve gene expression in Yoda1-treated cultured LECs in the absence of OSS. It is filed as cell-based, human. The protocol: As Piezo1 was originally identified as a mechanically activated cation channel (21-25), we next asked whether another physical force, such as cell stretching, could stimulate Piezo1 and induce the molecular signature of lymphatic valves. To address this question, primary LECs were subjected to cyclic cell stretching (112%, 12 Hz) for 4, 8, and 24 hours in the absence of OSS, and the expression of the lymphatic valve genes were investigated. […] In addition, we investigated whether chemical activation of Piezo1 promotes lymphatic valve formation in animals. Prox1-EGFP mice were perinatally administrated at E18.5 and P0 with a chemical agonist of Piezo1, Yoda1 (30), and lymphatic valve formation in the small intestine, colon, and skin was evaluated at P1. […] We then asked whether Yoda1 could activate cultured LECs to upregulate lymphatic valve genes in the absence of OSS.

“Also recorded” adds a separate entry of the source.

T1 sequence (E2JF22 whole entry): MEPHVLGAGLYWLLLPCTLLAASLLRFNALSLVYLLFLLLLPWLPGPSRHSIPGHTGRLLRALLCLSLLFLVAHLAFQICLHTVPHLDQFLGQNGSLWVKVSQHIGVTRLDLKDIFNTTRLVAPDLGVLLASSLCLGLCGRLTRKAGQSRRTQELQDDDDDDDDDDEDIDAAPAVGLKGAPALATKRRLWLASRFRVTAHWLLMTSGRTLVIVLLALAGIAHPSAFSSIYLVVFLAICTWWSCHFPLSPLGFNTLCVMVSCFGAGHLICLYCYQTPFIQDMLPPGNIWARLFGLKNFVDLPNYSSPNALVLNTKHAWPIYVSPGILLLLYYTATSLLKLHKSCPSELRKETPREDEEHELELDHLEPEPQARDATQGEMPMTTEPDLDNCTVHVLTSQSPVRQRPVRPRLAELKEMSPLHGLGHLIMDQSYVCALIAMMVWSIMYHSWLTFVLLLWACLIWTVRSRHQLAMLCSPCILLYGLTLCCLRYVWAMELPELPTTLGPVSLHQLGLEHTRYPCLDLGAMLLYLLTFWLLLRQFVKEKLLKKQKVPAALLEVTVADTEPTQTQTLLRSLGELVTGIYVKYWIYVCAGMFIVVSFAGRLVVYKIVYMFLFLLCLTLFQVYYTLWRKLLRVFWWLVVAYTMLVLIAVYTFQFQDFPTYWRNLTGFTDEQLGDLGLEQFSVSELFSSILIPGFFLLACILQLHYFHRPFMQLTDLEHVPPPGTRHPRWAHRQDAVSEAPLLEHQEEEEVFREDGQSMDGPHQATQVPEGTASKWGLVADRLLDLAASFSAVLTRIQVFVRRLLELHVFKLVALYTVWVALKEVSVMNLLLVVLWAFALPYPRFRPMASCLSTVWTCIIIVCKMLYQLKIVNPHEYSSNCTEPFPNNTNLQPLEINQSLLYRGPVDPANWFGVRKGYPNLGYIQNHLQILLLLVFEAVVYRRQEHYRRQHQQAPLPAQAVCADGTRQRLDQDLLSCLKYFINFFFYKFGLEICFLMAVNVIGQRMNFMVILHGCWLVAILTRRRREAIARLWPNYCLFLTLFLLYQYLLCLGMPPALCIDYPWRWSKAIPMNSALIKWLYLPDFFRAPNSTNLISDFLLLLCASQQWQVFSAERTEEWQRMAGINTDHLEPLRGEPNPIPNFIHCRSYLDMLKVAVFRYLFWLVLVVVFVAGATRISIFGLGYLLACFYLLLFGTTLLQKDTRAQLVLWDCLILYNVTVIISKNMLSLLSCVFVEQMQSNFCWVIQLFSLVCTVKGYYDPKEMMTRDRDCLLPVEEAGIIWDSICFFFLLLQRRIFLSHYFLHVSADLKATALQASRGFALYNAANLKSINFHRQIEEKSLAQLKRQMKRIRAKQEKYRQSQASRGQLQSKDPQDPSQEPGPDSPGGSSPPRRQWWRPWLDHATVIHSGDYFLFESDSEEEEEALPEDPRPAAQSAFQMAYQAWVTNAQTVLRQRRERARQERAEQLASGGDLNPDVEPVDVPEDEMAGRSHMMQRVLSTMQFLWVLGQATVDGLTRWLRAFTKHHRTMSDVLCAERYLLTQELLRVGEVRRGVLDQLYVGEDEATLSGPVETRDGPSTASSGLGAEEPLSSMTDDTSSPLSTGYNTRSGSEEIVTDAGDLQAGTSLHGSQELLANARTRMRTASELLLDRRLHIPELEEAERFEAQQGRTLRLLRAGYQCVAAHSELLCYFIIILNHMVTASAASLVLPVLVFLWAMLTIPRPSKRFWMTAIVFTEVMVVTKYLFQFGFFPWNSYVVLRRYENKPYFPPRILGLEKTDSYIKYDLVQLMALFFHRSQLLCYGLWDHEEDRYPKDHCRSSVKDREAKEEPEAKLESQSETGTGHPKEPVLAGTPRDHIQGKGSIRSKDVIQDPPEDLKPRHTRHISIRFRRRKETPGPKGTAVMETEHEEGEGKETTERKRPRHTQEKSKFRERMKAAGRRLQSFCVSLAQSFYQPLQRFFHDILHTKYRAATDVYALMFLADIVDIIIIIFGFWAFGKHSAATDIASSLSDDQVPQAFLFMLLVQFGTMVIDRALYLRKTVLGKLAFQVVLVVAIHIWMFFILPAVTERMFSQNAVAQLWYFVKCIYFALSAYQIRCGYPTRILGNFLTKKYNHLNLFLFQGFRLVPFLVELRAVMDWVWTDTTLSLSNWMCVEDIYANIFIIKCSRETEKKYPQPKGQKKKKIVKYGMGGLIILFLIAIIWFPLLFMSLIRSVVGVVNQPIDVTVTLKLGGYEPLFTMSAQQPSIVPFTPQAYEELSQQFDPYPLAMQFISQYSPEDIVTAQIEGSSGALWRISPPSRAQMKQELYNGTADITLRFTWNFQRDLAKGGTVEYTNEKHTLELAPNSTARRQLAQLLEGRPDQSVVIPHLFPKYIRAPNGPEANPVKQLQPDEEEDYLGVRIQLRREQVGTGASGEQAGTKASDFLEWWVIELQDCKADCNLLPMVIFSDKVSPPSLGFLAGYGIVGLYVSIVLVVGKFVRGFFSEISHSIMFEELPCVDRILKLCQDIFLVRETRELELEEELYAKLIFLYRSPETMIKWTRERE

Consider `Clc1cccc(Cl)c1CSc1nnc(-c2cnccn2)s1` [Yoda1, 2-[(2,6-dichlorophenyl)methylsulfanyl]-5-pyrazin-2-yl-1,3,4-thiadiazole], for which, in assay [1], the lymphatic valve formation result is listed as “significantly expedited; also recorded: accelerated lymphatic valve formation”. Besides, the FOXC2 expression entry in assay [2] is listed as “rather downregulated”. Further, in assay [2] (Piezo1-dependent), the CX37 expression result is “upregulates”, the GATA2 expression entry is recorded as “upregulates”, the ITGA9 expression entry is “upregulates” and the LAMA5 expression result is “upregulates”.

For the origin of these results see patent publication US12178902B1, “Methods and compositions for fluid drainage by Piezo ion channel activation” (UNIVERSITY OF SOUTHERN CALIFORNIA, priority 2020, dated 2024).
